Test results as given in ChEMBL document CHEMBL1146745, “Studies on anti-Helicobacter pylori agents. Part 3: A novel, efficacious cephem derivative, FR193879” (Bioorg Med Chem Lett, 2004).
≈ marks a conversion by molar mass, not a printed value. Values belong to the compound of their own block, whether it stands above or below them.

Assays:
Helicobacter pylori [1] = assay: Minimum inhibitory activity against clarithromycin- and metronidazole-resistant strain 16043; type: functional
Helicobacter pylori [2] = assay: Minimum inhibitory activity against clarithromycin- and metronidazole-resistant strain 15069; type: functional
Helicobacter pylori [3] = assay: Minimum inhibitory activity against clarithromycin- and metronidazole-resistant strain 16021; type: functional
Bacteroides fragilis [4] = assay: Stability towards beta-lactamase was determined in […] FP784; type: functional, organism-based
Rattus norvegicus [5] = assay: Recovery rate from urine and bile was determined after iv administration at 20 mg/kg in rats; type: functional, organism-based; parameters: dose 20 mg/kg
Rattus norvegicus [6] = assay: In vivo gastric mucosa concentration administered perorally at 20 mg/kg was determined in rats at 4 hr; type: functional; settings: route oral
[7] = Solubility at a pH of 2.0; type: physicochemical; settings: pH 2
[8] = Retention time by HPLC as an index of polarity
Rattus norvegicus [9] = assay: In vivo gastric mucosa concentration administered perorally at 20 mg/kg was determined in rats at 1 hr; type: functional; settings: route oral
Helicobacter pylori [10] = assay: Minimum inhibitory activity against Helicobacter pylori FP1836; type: functional
[11] = Therapeutic efficacy at an oral dose of 0.125 mg/kg in guinea pig; type: ADME, organism-based; parameters: dose 0.125 mg/kg, route oral; settings: in vivo
[12] = Therapeutic efficacy at an oral dose of 2 mg/kg in guinea pig; type: ADME, organism-based; parameters: dose 2 mg/kg, route oral; settings: in vivo
Rattus norvegicus [13] = assay: In vivo gastric mucosa concentration administered perorally at 20 mg/kg was determined in rats at 0.5 hr; type: functional; settings: route oral
[14] = Therapeutic efficacy at an oral dose of 0.1 mg/kg in mouse; type: ADME, organism-based; parameters: dose 0.1 mg/kg, route oral; settings: in vivo
Rattus norvegicus [15] = assay: In vivo gastric mucosa concentration administered perorally at 20 mg/kg was determined in rats at 2 hr; type: functional; settings: route oral
[16] = Partition coefficient by HPLC retention as an index of polarity; type: ADME; settings: octanol/water
[17] = Solubility at a pH of 4.0; type: physicochemical; settings: pH 4
Canis familiaris = assay: Non-toxic dose in dogs after 4 weeks of oral administration; type: functional, Canis lupus familiaris
[18] = Therapeutic efficacy at an oral dose of 0.5 mg/kg in guinea pig; type: ADME, organism-based; parameters: dose 0.5 mg/kg, route oral; settings: in vivo
[19] = Therapeutic efficacy at an oral dose of 0.32 mg/kg in mouse; type: ADME, organism-based; parameters: dose 0.32 mg/kg, route oral; settings: in vivo
[20] = Therapeutic efficacy at a dose of 0.32 mg/kg; type: ADME, organism-based; parameters: dose 0.32 mg/kg; settings: in vivo
[21] = Therapeutic efficacy at an oral dose of 0.032 mg/kg in mouse; type: ADME, organism-based; parameters: dose 0.032 mg/kg, route oral; settings: in vivo
[22] = Therapeutic efficacy at a dose of 0.1 mg/kg; type: ADME, organism-based; parameters: dose 0.1 mg/kg; settings: in vivo
Helicobacter pylori [23] = assay: Minimum inhibitory concentration against Helicobacter pylori FP1757; type: functional
Helicobacter pylori [24] = assay: Minimum inhibitory activity against Helicobacter pylori FP1757; type: functional
Bacteroides fragilis [25] = assay: Relative stability towards beta-lactamase was determined in […] FP784; type: functional

SMILES: O=C(N[C@H](CO)[C@H](O)c1ccc([N+](=O)[O-])cc1)C(Cl)Cl [CHLORAMPHENICOL]
MIC (Helicobacter pylori [1]): 50 µg/mL (≈ 155 µM)
MIC (Helicobacter pylori [2]): 25 µg/mL (≈ 77.4 µM)
MIC (Helicobacter pylori [3]): 50 µg/mL (≈ 155 µM)

Km (Bacteroides fragilis [4]): 31.7 µg/mL
SMILES: O=C(Cc1cccs1)N[C@@H]1C(=O)N2C(C(=O)[O-])=C(C[n+]3ccccc3)CS[C@H]12

SMILES: O=C(Cc1ccccc1)NC1C(=O)N2C(C(=O)O)=C(Sc3cnns3)CS[C@H]12 (some centres undefined)
Recovery rate (Rattus norvegicus [5]): 21%

SMILES: O=C(Cc1ccccc1)NC1C(=O)N2C(C(=O)O)=C(Sc3nccs3)CS[C@H]12 (some centres undefined)
Recovery rate (Rattus norvegicus [5]): 63%

SMILES: Cc1nnc(SC2=C(C(=O)O)N3C(=O)C(NC(=O)Cc4ccccc4)[C@H]3SC2)s1 (some centres undefined)
Gastric concentration (Rattus norvegicus [6]): 23 µg/g
solubility [7]: 53 µg/mL (≈ 118 µM)
HPLC retention time [8]: 10 min
Gastric concentration (Rattus norvegicus [9]): 83 µg/g
MIC50 (Helicobacter pylori [10]): 0.00313 µg/mL (≈ 0.00698 µM)
Ratio [11]: 0
Ratio [12]: 5
Gastric concentration (Rattus norvegicus [13]): 89 µg/g
Ratio [14]: 2
Gastric concentration (Rattus norvegicus [15]): 48 µg/g
HPLC retention time [16]: 10 min
solubility [17]: 1050 µg/mL (≈ 2340 µM)
Dose (Canis familiaris): <32 mg/kg
Ratio [18]: 2
Ratio [19]: 5
Ratio [20]: 5
Ratio [21]: 1
Recovery rate (Rattus norvegicus [5]): 33%
Ratio [22]: 2
MIC (Helicobacter pylori [23]): 0.00156 µg/mL (≈ 0.00348 µM)

SMILES: CC1(C)S[C@@H]2[C@H](NC(=O)[C@H](N)c3ccc(O)cc3)C(=O)N2[C@H]1C(=O)O [AMOXICILLIN]
MIC (Helicobacter pylori [1]): 0.05 µg/mL (≈ 0.137 µM)
MIC50 (Helicobacter pylori [10]): 0.05 µg/mL (≈ 0.137 µM)
MIC50 (Helicobacter pylori [24]): 0.0125 µg/mL (≈ 0.0342 µM)
MIC (Helicobacter pylori [2]): 0.2 µg/mL (≈ 0.547 µM)
Km (Bacteroides fragilis [4]): 27.3 µg/mL
Vmax (Bacteroides fragilis [4]): 0.0175
MIC (Helicobacter pylori [3]): 0.025 µg/mL (≈ 0.0684 µM)

solubility [7]: 125 µg/mL (≈ 254 µM)
HPLC retention time [8]: 9.9 min
MIC50 (Helicobacter pylori [10]): 0.00313 µg/mL (≈ 0.00637 µM)
Ratio [11]: 0
Ratio [12]: 2
Ratio [14]: 1
solubility [17]: 1820 µg/mL (≈ 3700 µM)
MIC50 (Helicobacter pylori [24]): 0.00039 µg/mL (≈ 0.000793 µM)
Ratio [18]: 0
Ratio [19]: 5
Ratio [21]: 2
SMILES: O=C(O)Cc1csc(SC2=C(C(=O)O)N3C(=O)[C@@H](NC(=O)Cc4ccccc4)[C@H]3SC2)n1
Gastric concentration (Rattus norvegicus [6]): 63 µg/g
Gastric concentration (Rattus norvegicus [9]): 150 µg/g
Gastric concentration (Rattus norvegicus [13]): 377 µg/g
Gastric concentration (Rattus norvegicus [15]): 111 µg/g

SMILES: Cc1ncc([N+](=O)[O-])n1CCO [METRONIDAZOLE]
MIC (Helicobacter pylori [1]): 50 µg/mL (≈ 292 µM)
MIC (Helicobacter pylori [2]): 25 µg/mL (≈ 146 µM)
MIC (Helicobacter pylori [3]): 50 µg/mL (≈ 292 µM)

HPLC retention time [16]: 1 min
Ratio [20]: 1
Ratio [22]: 0
MIC (Helicobacter pylori [23]): 0.00078 µg/mL (≈ 0.00166 µM)
SMILES: Cc1nnc(SC2=C(C(=O)O)N3C(=O)[C@@H](NC(=O)Cc4csc(N)n4)[C@H]3SC2)s1

SMILES: O=C(Cc1ccccc1)NC1C(=O)N2C(C(=O)O)=C(Sc3nncs3)CS[C@H]12 (some centres undefined)
Recovery rate (Rattus norvegicus [5]): 9%

SMILES: NC(=O)Cc1csc(SC2=C(C(=O)O)N3C(=O)[C@@H](NC(=O)Cc4ccccc4)[C@H]3SC2)n1
Gastric concentration (Rattus norvegicus [6]): 38 µg/g
solubility [7]: 431 µg/mL (≈ 879 µM)
MIC (Helicobacter pylori [1]): 0.0016 µg/mL (≈ 0.00326 µM)
HPLC retention time [8]: 6.2 min
Gastric concentration (Rattus norvegicus [9]): 163 µg/g
MIC50 (Helicobacter pylori [10]): 0.00313 µg/mL (≈ 0.00638 µM)
Ratio [11]: 0
Ratio [12]: 5
Gastric concentration (Rattus norvegicus [13]): 385 µg/g
Ratio [14]: 4
Gastric concentration (Rattus norvegicus [15]): 68 µg/g
solubility [17]: 2210 µg/mL (≈ 4500 µM)
MIC50 (Helicobacter pylori [24]): 0.00078 µg/mL (≈ 0.00159 µM)
Dose (Canis familiaris): >100 mg/kg
MIC (Helicobacter pylori [2]): 0.0063 µg/mL (≈ 0.0128 µM)
Km (Bacteroides fragilis [4]): 19.4 µg/mL
Vmax (Bacteroides fragilis [4]): 0.647
Ratio [18]: 3
Ratio [19]: 5
MIC (Helicobacter pylori [3]): 0.0016 µg/mL (≈ 0.00326 µM)
Ratio (Bacteroides fragilis [25]): 1.06
Ratio [21]: 1
Recovery rate (Rattus norvegicus [5]): 68%
